Measured values as given in PubChem BioAssay AID1919003 (Molecular Pharmacology Branch, DTP, NCI, 2023).

Tested on: 786-0 complex spheroids with HUVEC/MSC, growth % test/control
Assay: Anticancer human tumor 786-0 cell line growth inhibition [AhR];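 also: compound exposure lasted seven days before the read-out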
Conditions: for IC50: curve of first compound; for viability, T/C: stronger effect = lower value
Description: Multicellular complex tumor spheroid response to aryl hydrocarbon receptor antagonists in combination with a variety of drugs and investigational agents in selected tumor cell lines
The current study was undertaken to assess response to aryl hydrocarbon receptor antagonists in combination with standard-of-care drugs and investigational agents in solid tumor complex spheroid models. Complex spheroids include a stromal component modeled by human endothelial cells (HUVEC) and fibroblasts modeled by human mesenchymal stem cells (MSCs). The concentration ranges selected for each drug and investigational agent were based upon clinically achievable concentrations if the clinical Cmax of the agent was known.
Compounds. The drugs and investigational agents: BAY 2416964 (NSC825713), GNF351 (NSC835774), CH-223191 (NSC835775), CPI-455 (NSC825282), aza-TdCyd (NSC777586), decitabine (NSC127716), belinostat (NSC758774), entinostat (NSC756642), pevonedistat (NSC761192), tazemetostat (NSC777109), talazoparib (NSC765396), olaparib (NSC753686), selinexor (NSC780203), nedisertib (M3814, NSC802822), bortezomib (NSC756655), venetoclax (NSC766270), doxorubicin (NSC123127), elimusertib (BAY189344, NSC800525), ceralasertib (AZD6738, NSC777638), TAK-243 (NSC785004), alisertib (NSC759677), etoposide (NSC141540), topotecan (NSC609699), eribulin (NSC707389), gemcitabine (NSC613327), carboplatin (NSC241240), cisplatin (NSC119875), and SN-38 (NSC673596) were obtained from the National Cancer Institute (NCI) Developmental Therapeutics Program Chemical Repository (32). The FDA-approved anticancer drug set is available from the Developmental Therapeutics Program at https://dtp.cancer.gov/organization/dscb/obtaining/available plates.htm. […] The stock solutions were prepared in dimethyl sulfoxide (DMSO, Sigma-Aldrich, St. Louis, MO, cat. D2650), except for the platinum compounds which were prepared in saline (Quality Biological, Gaithersburg, MD, cat. 114-055-101), at 800-fold the tested concentration and stored at -70 degrees C prior to their use. All drugs and investigational agents were tested over a range starting from a high concentration at or near the clinical Cmax and decreasing in half-log increments. If the clinical Cmax for an agent had not been determined, the highest concentration tested was 10 microM (Table 1).
Cell Culture. All cells were maintained in an incubator at 37 degrees C and 5% CO2 with 95% humidity. The PDC lines were cultured according to standard operating procedures established by the NCI PDMR (https://pdmr.cancer.gov). Briefly, all PDCs were thawed and cultured in Matrigel-coated flasks prepared with a working solution of 1X Ham's F-12 nutrient mix, without supplementation (Invitrogen, Waltham, MA, cat. 11765054), 100 U/mL penicillin-streptomycin (Invitrogen, cat. 15140122), and 2.5% Matrigel (Corning Inc., Corning, NY, cat. 354248) for the first three passages. All PDCs were cultured in complete DMEM/F-12 media containing advanced DMEM/F-12 (Invitrogen, cat. 12634028), 4.9% defined fetal bovine serum, heat inactivated (HyClone Laboratories Inc., Logan, UT, cat. SH30070.03HI), 389 ng/mL hydrocortisone (Sigma-Aldrich, cat. H4001), 9.7 ng/mL human EGF recombinant protein (Invitrogen, cat. PHG0313), 23.4 microg/mL adenine (Sigma-Aldrich, cat. A2786), 97.3 U/mL penicillin-streptomycin (Invitrogen, cat. 15140122), 1.9 mM L-glutamine (Invitrogen, cat. 25030081), and 9.7 microM Y-27632 dihydrochloride (Tocris Bioscience, Bristol, United Kingdom, cat. 1254). The PDCs were cultured in complete DMEM/F12 media without 10 microM Y-27632 dihydrochloride for at least two passages prior to the screen. The established cell lines NCI-H1341 and […] were cultured in DMEM/F-12, HEPES (Invitrogen, cat. 11330032), 5% defined fetal bovine serum (HyClone Laboratories Inc., cat. SH30070.03), ITS premix universal culture supplement [insulin (5 microg/mL), transferrin (5 microg/mL), and selenious acid (5 ng/mL)] […]

[1] = second compound 0.1 µM, first compound 0.0316 µM
[2] = second compound 0.1 µM, first compound 0.1 µM
[3] = second compound 0.316 µM, first compound 0.0316 µM
[4] = second compound 0.316 µM, first compound 0.1 µM
[5] = second compound 1 µM, first compound 0.0316 µM
[6] = second compound 1 µM, first compound 0.1 µM
[7] = second compound 3.16 µM, first compound 0.0316 µM
[8] = second compound 3.16 µM, first compound 0.1 µM
[9] = second compound 10 µM, first compound 0.0316 µM
[10] = second compound 10 µM, first compound 0.1 µM
[11] = second compound 0.1 µM, first compound 0.000316 µM
[12] = second compound 0.1 µM, first compound 0.001 µM
[13] = second compound 0.1 µM, first compound 0.00316 µM
[14] = second compound 0.1 µM, first compound 0.01 µM
[15] = second compound 0.316 µM, first compound 0.000316 µM
[16] = second compound 0.316 µM, first compound 0.001 µM
[17] = second compound 0.316 µM, first compound 0.00316 µM
[18] = second compound 0.316 µM, first compound 0.01 µM
[19] = second compound 1 µM, first compound 0.000316 µM
[20] = second compound 1 µM, first compound 0.001 µM
[21] = second compound 1 µM, first compound 0.00316 µM
[22] = second compound 1 µM, first compound 0.01 µM
[23] = second compound 3.16 µM, first compound 0.000316 µM
[24] = second compound 3.16 µM, first compound 0.001 µM
[25] = second compound 3.16 µM, first compound 0.00316 µM
[26] = second compound 3.16 µM, first compound 0.01 µM
[27] = second compound 10 µM, first compound 0.000316 µM
[28] = second compound 10 µM, first compound 0.001 µM
[29] = second compound 10 µM, first compound 0.00316 µM
[30] = second compound 10 µM, first compound 0.01 µM

Structure (SMILES) | IC50 (second compound 0.1 µM) [nM] | IC50 (second compound 0.316 µM) [nM] | IC50 (second compound 1 µM) [nM] | IC50 (second compound 3.16 µM) [nM] | IC50 (second compound 10 µM) [nM] | viability, T/C [1] [%] | viability, T/C [2] [%] | viability, T/C [3] [%] | viability, T/C [4] [%] | viability, T/C [5] [%] | viability, T/C [6] [%] | viability, T/C [7] [%] | viability, T/C [8] [%] | viability, T/C [9] [%] | viability, T/C [10] [%] | viability, T/C [11] [%] | viability, T/C [12] [%] | viability, T/C [13] [%] | viability, T/C [14] [%] | viability, T/C [15] [%] | also measured
O=C(c1cc(Cc2n[nH]c(=O)c3ccccc23)ccc1F)N1CCN(C(=O)C2CC2)CC1 + Cc1cncc(-c2nc(NCCc3c[nH]c4ccccc34)c3ncn(C(C)C)c3n2)c1 | > 10000 | > 10000 | > 10000 | > 10000 | < 31.6 | 125 | 119 | 115 | 126 | 112 | 123 | 80.2 | 82.3 | 10.6 | 18 | – | – | – | – | – | viability, T/C (second compound 0.1 µM, first compound 0.316 µM): 133%; viability, T/C (second compound 0.1 µM, first compound 1 µM): 125%; viability, T/C (second compound 0.1 µM, first compound 3.16 µM): 120%; viability, T/C (second compound 0.1 µM, first compound 10 µM): 131%; viability, T/C (second compound 0.316 µM, first compound 0.316 µM): 123%; viability, T/C (second compound 0.316 µM, first compound 1 µM): 126%; viability, T/C (second compound 0.316 µM, first compound 3.16 µM): 128%; viability, T/C (second compound 0.316 µM, first compound 10 µM): 120%; viability, T/C (second compound 1 µM, first compound 0.316 µM): 112%; viability, T/C (second compound 1 µM, first compound 1 µM): 112%; viability, T/C (second compound 1 µM, first compound 3.16 µM): 121%; viability, T/C (second compound 1 µM, first compound 10 µM): 108%; viability, T/C (second compound 3.16 µM, first compound 0.316 µM): 82.8%; viability, T/C (second compound 3.16 µM, first compound 1 µM): 85.1%; viability, T/C (second compound 3.16 µM, first compound 3.16 µM): 79.3%; viability, T/C (second compound 3.16 µM, first compound 10 µM): 77.9%; viability, T/C (second compound 10 µM, first compound 0.316 µM): 9.64%; viability, T/C (second compound 10 µM, first compound 1 µM): 16.9%; viability, T/C (second compound 10 µM, first compound 3.16 µM): 15.3%; viability, T/C (second compound 10 µM, first compound 10 µM): 13%
CC[C@@]1(O)C(=O)OCc2c1cc1n(c2=O)Cc2cc3c(CN(C)C)c(O)ccc3nc2-1 + Cc1ccccc1N=Nc1ccc(NC(=O)c2ccnn2C)c(C)c1 | 48.5 | 41 | 38.8 | 30.9 | 27 | 68.1 | 19.6 | 59.8 | 16.6 | 57.3 | 15.9 | 49.1 | 18.7 | 44.6 | 16.7 | 107 | 103 | 104 | 109 | 101 | viability, T/C [16]: 99.4%; viability, T/C [17]: 107%; viability, T/C [18]: 103%; viability, T/C [19]: 102%; viability, T/C [20]: 101%; viability, T/C [21]: 106%; viability, T/C [22]: 103%; viability, T/C [23]: 96.4%; viability, T/C [24]: 101%; viability, T/C [25]: 93.4%; viability, T/C [26]: 92.3%; viability, T/C [27]: 90.7%; viability, T/C [28]: 89.5%; viability, T/C [29]: 86.4%; viability, T/C [30]: 83.6%
Cn1ncnc1C1c2n[nH]c(=O)c3cc(F)cc(c23)NC1c1ccc(F)cc1 (stereo not given) + CC(CO)NC(=O)c1cc(-c2ccc(Cl)cc2)nn(-c2cnn(C)c2)c1=O | > 100 | > 100 | > 100 | > 100 | > 100 | 113 | 98.8 | 109 | 98.7 | 107 | 99.3 | 100 | 102 | 110 | 110 | 105 | 97.4 | 95 | 99.6 | 101 | viability, T/C [16]: 105%; viability, T/C [17]: 97.8%; viability, T/C [18]: 98.2%; viability, T/C [19]: 99.3%; viability, T/C [20]: 107%; viability, T/C [21]: 105%; viability, T/C [22]: 110%; viability, T/C [23]: 107%; viability, T/C [24]: 102%; viability, T/C [25]: 99.1%; viability, T/C [26]: 111%; viability, T/C [27]: 114%; viability, T/C [28]: 118%; viability, T/C [29]: 110%; viability, T/C [30]: 111%
